From patent EP0671915B1, “USE OF IDAZOXAN AND DERIVATIVES THEREOF IN PREPARING A DRUG FOR TREATING PARKINSON'S DISEASE AND ITS DEVELOPMENT” (PIERRE FABRE MEDICAMENT, priority 1992, dated 1994)

Tests used:
[1] = Clinical study in idiopathic Parkinson's disease patients versus 1-DOPA: motor symptoms; format: in vivo; design: key: 0 : pas de changements par rapport à avant le traitement; + a +++ amélioration; + a +++ amélioration; + a +++ amélioration; details: oral, 4 weeks; for symptômes précoces, persistance de l'amélioration après traitement / symptômes précoces, pendant traitement: eye blinking; for symptômes précoces, persistance de l'amélioration après traitement / symptômes tardifs, persistance de l'amélioration après traitement: after end of treatment; for symptômes précoces, pendant traitement / symptômes tardifs, pendant traitement: during treatment; for symptômes tardifs, persistance de l'amélioration après traitement / symptômes tardifs, pendant traitement: hypokinesia
Description: 20 patients ont été sélectionnés répondant aux critères idiopathiques de la maladie de Parkinson et une étude a été menée contre la 1-DOPA.
Les administrations sont effectuées pendant 4 semaines par voie orale dans une gamme de dose de 500 mg à 4 g par jour pour la 1-DOPA, et pour l'Idazoxan d'une dose initiale de 3 fois 5 mg par jour croissant à un maximum de 3 fois 40 mg par jour, le clinicien déterminant la posologie exacte pour chaque patient.
L'efficacité des traitements a été mesurée sur les symptômes moteurs, du type tremblement d'action, d'intention, de repos, sur l'hypokinésie (symptômes tardifs) et le clignement des paupières (symptôme précoce de la maladie). Les observations ont été faites pendant le traitement et après arrêt du traitement pour mettre en évidence la persistance éventuelle de l'amélioration des symptômes.

neurones dopaminergiques = assay: Mouse model of DSP4 + MPTP induced degeneration: cortical noradrenaline and striatal dopamine levels; format: in vivo, souris; design: key to Taux de NA cortical / Taux de DA striatale: * à *** niveau de dégénérescence estimé par la diminution des taux de NA cortical et DA striatale; * à *** niveau de dégénérescence estimé par la diminution des taux de NA cortical et DA striatale; * à *** niveau de dégénérescence estimé par la diminution des taux de NA cortical et DA striatale; details: for Taux de DA striatale / Taux de NA cortical: mice given DSP4 and MPTP, then treated, measured after end of treatment, symbol = level of degeneration
voie nigro-striée = assay: Squirrel monkey MPTP model with noradrenergic lesion (protocol analogous to Mavridis et al.); format: in vivo, singe écureuil; details: behavioural, biochemical and histological results
Excerpt: L'emploi de l'idazoxan a également été étudié chez le singe écureuil selon un protocole analogue à celui de M. MAVRIDIS et al. Neuroscience 41,507 (1991).
Les résultats comportementaux, biochimiques et histologiques montrent qu'une lésion du système noradrénergique induit une dégénération de la voie nigrostriée après administration du MPTP.

[2] = depression; 5 to 40 mg, 3 times a day for 4 weeks; versus placebo; cited from earlier work

Row | SMILES | symptômes précoces, persistance de l'amélioration après traitement [1] | symptômes précoces, pendant traitement [1] | symptômes tardifs, persistance de l'amélioration après traitement [1] | symptômes tardifs, pendant traitement [1] | Taux de DA striatale (neurones dopaminergiques) | Taux de NA cortical (neurones dopaminergiques) | dégénérescence de neurones dopaminergiques provoquée par le DSP4 et la MPTP (neurones dopaminergiques; shown by slower fall of striatal dopamine compared with 1-DOPA (Groupe F) or apomorphine (Groupe G)) | effet de la lésion de la voie nigro-striée (voie nigro-striée) | échelle de Hamilton [2]
1 | N[C@@H](Cc1ccc(O)c(O)c1)C(=O)O [1-DOPA, reference compound] | 0 | +++ | 0 | +++ | – | – | – | – | –
2 | CN1CCc2cccc3c2[C@H]1Cc1ccc(O)c(O)c1-3 [G, apomorphine, reference compound] | – | – | – | – | *** | * | – | – | –
3 | c1ccc2c(c1)OCC(C1=NCCN1)O2 (stereo not drawn) [idazoxan, 2-(2-(1,4-benzodioxanyl))-2-imidazoline] | ++ | ++ | + | + | * | * | ralentissement de la dégénérescence de neurones dopaminergiques | diminue l'effet de la lésion de la voie nigro-striée et améliore l'évolution | amélioration significative
